Experimental data reported in PubChem BioAssay (NCI).
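Growth conditions: 96-well plates. Treatment: test compound, 48 hours, 5 concentrations. Analysis: linear interpolation between bracketing concentrations; unreached endpoints set to highest concentration. Abbreviation: GI50, concentration required for 50% inhibition of growth. TGI: total growth inhibition.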

What was measured:
Assay in all cases: NCI tumour cell line growth inhibition, 48 h
786-0 renal = test system: 786-0 renal
EKVX NSCLC = test system: EKVX NSCLC
HOP-62 NSCLC = test system: HOP-62 NSCLC
HOP-92 NSCLC = test system: HOP-92 NSCLC
HS 578T breast = test system: HS 578T breast
HT29 colon = test system: HT29 colon
MDA-MB-231 breast = test system: MDA-MB-231 breast
SN12C renal = test system: SN12C renal
TK-10 renal = test system: TK-10 renal
U251 CNS = test system: U251 CNS

Row | SMILES | GI50 (786-0 renal) | TGI (786-0 renal) | GI50 (EKVX NSCLC) | TGI (EKVX NSCLC) | GI50 (HOP-62 NSCLC) | TGI (HOP-62 NSCLC) | GI50 (HOP-92 NSCLC) | TGI (HOP-92 NSCLC) | GI50 (HS 578T breast) | TGI (HS 578T breast) | GI50 (HT29 colon) | TGI (HT29 colon) | GI50 (MDA-MB-231 breast) | TGI (MDA-MB-231 breast) | GI50 (SN12C renal) | TGI (SN12C renal) | GI50 (TK-10 renal) | TGI (TK-10 renal) | GI50 (U251 CNS) | TGI (U251 CNS)
1 | NC1CCC(N[C@@H]2C[C@H]2c2ccccc2)CC1 (stereo not given in full) | > 100 µM | > 100 µM | > 100 µM | > 100 µM | 95.4 µM | > 100 µM | 5.47 µM | > 100 µM | > 100 µM | > 100 µM | 40.1 µM | > 100 µM | 23 µM | > 100 µM | > 100 µM | > 100 µM | > 100 µM | > 100 µM | > 100 µM | > 100 µM
2 | COc1cc2c(cc1OCCCCOc1ccc(-c3nc4ccccc4s3)cc1)N=C[C@@H]1CCCN1C2=O | 0.58 µM | 1.16 µM | 2.56 µM | 6.39 µM | 0.745 µM | 2.14 µM | 0.335 µM | 0.957 µM | 0.891 µM | 4.43 µM | 0.819 µM | 15.8 µM | 0.573 µM | 2.04 µM | 1.13 µM | 4 µM | 1.21 µM | 5.17 µM | 0.534 µM | 1.85 µM
3 | O=C(CC1C=CCS1(=O)=O)NCc1ccccc1 (stereo not given) | – | > 100 µM | – | > 100 µM | – | > 100 µM | – | > 100 µM | – | > 100 µM | – | > 100 µM | – | > 100 µM | – | > 100 µM | – | > 100 µM | – | > 100 µM
4 | C=C1C[C@@]2(C)C(CC[C@]3(C)C2CC=C2C4CC(C)(C)C[C@@H](OC(=O)/C(C)=C\C)[C@]4(C(=O)O)CC[C@]23C)C(C)(C)C1=O (stereo not given in full) | 2 µM | 3.9 µM | 4.95 µM | 19 µM | 3.43 µM | 22.3 µM | 2.34 µM | 7.15 µM | 5.21 µM | 34.4 µM | 2.55 µM | 6.81 µM | 5.96 µM | 31.4 µM | 3.22 µM | 15.2 µM | 4.57 µM | 17.9 µM | 2.46 µM | 6.83 µM
5 | CCNCCCn1c2c(c3ccc([N+](=O)[O-])cc3c1=O)C(=O)c1cc(OC)cnc1-2 | 0.0406 µM | 0.31 µM | 0.204 µM | 1.27 µM | 0.107 µM | 1.89 µM | 0.471 µM | 17.4 µM | 1.05 µM | 4.33 µM | 0.0579 µM | 1.25 µM | 0.326 µM | 1.49 µM | 0.0531 µM | 1.08 µM | 0.294 µM | 1.47 µM | 0.0329 µM | 0.186 µM
6 | CCOC(=O)c1cc(C(=O)c2cc(OC)c(OC)c(OC)c2)n2ccccc12 | 0.739 µM | > 42.7 µM | 0.342 µM | > 100 µM | 0.241 µM | > 67.9 µM | 25.6 µM | > 100 µM | 0.123 µM | 46.6 µM | 0.0425 µM | > 100 µM | 2.81 µM | > 100 µM | 1.17 µM | > 100 µM | 11.6 µM | > 100 µM | 0.0899 µM | 38.6 µM
7 | COC1=C(Br)C(=O)C2=C(C1=O)C1C3=C(C(=O)C=CC3=O)C2c2ccccc21 (stereo not given) | 14.9 µM | 36.1 µM | 5.81 µM | 22.2 µM | 25.9 µM | 47.6 µM | 2.51 µM | 11.6 µM | 4.82 µM | > 100 µM | 31.9 µM | > 100 µM | 8.15 µM | 66.1 µM | 11 µM | 32.2 µM | 23.8 µM | 43.5 µM | 4.31 µM | 22.2 µM
8 | COc1ccc(OC)c2c(=S)c3ccccc3[nH]c12 | – | > 100 µM | – | > 100 µM | – | > 100 µM | – | > 100 µM | – | > 100 µM | – | > 100 µM | – | > 100 µM | – | > 100 µM | – | 100 µM | – | > 100 µM
9 | N#C/C(=C\c1ccc(Br)cc1)n1nnc2ccccc21 | 0.501 µM | 1.79 µM | 1.41 µM | 7.48 µM | 1.92 µM | 10.5 µM | 0.23 µM | 1.58 µM | 2.63 µM | 14 µM | 0.411 µM | 2.25 µM | 1.33 µM | 6.17 µM | 0.525 µM | 3.48 µM | 2.69 µM | 6.8 µM | 1.1 µM | 2.67 µM
